Results reported in patent publication US12139520B2 (priority 2020, dated 2024).
pEC50: −log10 of the molar value. Bridge positions count the residues as written; N and C are the ends. Square brackets hold non-standard residues; d marks the D form. Peptide text beside a SMILES is read from it. Hyp = O=C(O)[C@@H]1C[C@@H](O)CN1

Experiments:
hAM1 receptor = hAM1 receptor (Homo sapiens, UniProt O60895+Q16602); assay: cAMP assay for in vitro receptor activation, hAM1-R; type: cell-based; conditions: cAMP assay, hAM1 receptor; read-out: hAM1R EC50
Chain of hAM1 receptor (Q16602 23-461): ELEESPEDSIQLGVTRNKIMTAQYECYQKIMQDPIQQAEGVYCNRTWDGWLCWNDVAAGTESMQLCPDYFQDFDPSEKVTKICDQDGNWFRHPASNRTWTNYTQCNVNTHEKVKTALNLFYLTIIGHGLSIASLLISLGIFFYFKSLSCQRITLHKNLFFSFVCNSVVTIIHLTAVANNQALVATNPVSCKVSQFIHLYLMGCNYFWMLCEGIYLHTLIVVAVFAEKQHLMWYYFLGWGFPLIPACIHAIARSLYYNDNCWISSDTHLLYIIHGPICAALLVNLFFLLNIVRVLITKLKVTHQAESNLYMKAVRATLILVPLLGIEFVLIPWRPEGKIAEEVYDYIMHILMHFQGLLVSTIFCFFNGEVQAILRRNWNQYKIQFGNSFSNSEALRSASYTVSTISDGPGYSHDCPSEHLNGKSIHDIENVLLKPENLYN
Chain of hAM1 receptor (O60895 43-175 partner): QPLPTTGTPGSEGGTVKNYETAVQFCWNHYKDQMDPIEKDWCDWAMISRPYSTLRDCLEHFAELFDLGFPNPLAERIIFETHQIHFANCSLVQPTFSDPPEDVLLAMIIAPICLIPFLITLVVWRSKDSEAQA
Procedure, shortened: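 Receptor activation, read as cAMP, was assessed in thawed cells of a monoclonal hAM1-overexpressing stable line, plated at 8000 cells/well in DPBS supplemented with 0.05% casein and 0.5 mM IBMX.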

hAMY3 receptor = target: T1, hAMY3 receptor (Homo sapiens, UniProt O60896+P30988); assay: cAMP assay for in vitro receptor activation, hAMY3-R; type: cell-based; conditions: cAMP assay, hAMY3 receptor; read-out: hAMY3R EC50
T1 sequence (P30988 25-474): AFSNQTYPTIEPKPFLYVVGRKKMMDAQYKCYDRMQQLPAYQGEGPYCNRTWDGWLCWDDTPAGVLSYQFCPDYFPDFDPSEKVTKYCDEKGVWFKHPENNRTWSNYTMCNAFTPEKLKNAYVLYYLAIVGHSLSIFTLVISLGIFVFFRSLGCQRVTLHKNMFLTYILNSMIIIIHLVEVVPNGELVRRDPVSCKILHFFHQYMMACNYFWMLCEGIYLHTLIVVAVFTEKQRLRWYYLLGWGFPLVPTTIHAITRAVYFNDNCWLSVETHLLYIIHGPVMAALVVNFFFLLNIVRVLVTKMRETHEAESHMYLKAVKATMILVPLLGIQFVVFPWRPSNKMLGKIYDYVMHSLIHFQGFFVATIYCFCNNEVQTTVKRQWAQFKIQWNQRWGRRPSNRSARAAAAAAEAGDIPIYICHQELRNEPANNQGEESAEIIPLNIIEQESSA
T1 sequence (O60896 24-148 partner): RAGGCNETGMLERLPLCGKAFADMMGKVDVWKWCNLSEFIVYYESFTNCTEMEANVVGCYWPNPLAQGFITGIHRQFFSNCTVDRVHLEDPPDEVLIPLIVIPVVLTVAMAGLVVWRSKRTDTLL
Procedure, shortened: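 Monoclonal cell line stably overexpressing human AMY3 receptor, 2000 cells/well in DPBS with 0.05% casein and 0.5 mM IBMX. Stimulated 30 min at room temperature with graded compound doses, human amylin as positive control. cAMP accumulation read by TR-FRET after one hour.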

[1] = Physical stability of peptide analogues (Thioflavin T fibrillation); type: physicochemical; conditions: maximum ThT signal normalized between hAMY maximum and buffer background; 40° C., shaking, four days; pH 7 per table title
Procedure, shortened: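 Peptides in 50 mM sodium acetate pH 4 or 50 mM sodium phosphate pH 7 were preincubated 1 h, mixed with 4 μM ThT, held at 40° C with 700 rpm shaking before each read. Fluorescence (ex 450/em 480 nm) every 10 min for four days; LOESS-smoothed maximum signal normalized in percent between hAMY and buffer.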

pEC50 (hAM1 receptor) | pEC50 (hAMY3 receptor) | Max ThT signal (%) [1] [%] | SMILES
< 5.30 | 10.27 | 19.800 | CC[C@H](C)[C@H](NC(=O)[C@H](CCC(N)=O)NC(=O)[C@H](Cc1c[nH]cn1)NC(=O)[C@H](C)NC(=O)[C@H](CC(C)C)NC(=O)[C@H](Cc1c[nH]c2ccccc12)NC(=O)[C@H](CCC(N)=O)NC(=O)[C@@H](NC(=O)[C@@H](NC(=O)[C@@H]1CSSC[C@H](NC(=O)CN)C(=O)N[C@@H](CCCNC(=N)N)C(=O)N[C@@H]([C@@H](C)O)C(=O)NCC(=O)N[C@@H]([C@@H](C)O)C(=O)N1)[C@@H](C)O)C(C)C)C(=O)N[C@@H](Cc1ccc(O)cc1)C(=O)N[C@@H](CCC(N)=O)C(=O)N[C@@H](Cc1ccccc1)C(=O)N[C@H](C(=O)N[C@@H](CC(=O)O)C(=O)N[C@@H](CCCCN)C(=O)N[C@@H](CC(=O)O)C(=O)N[C@@H](CCCCN)C(=O)N[C@@H](CC(=O)O)C(=O)N[C@@H](CC(N)=O)C(=O)N[C@H](C(=O)N[C@@H](C)C(=O)N1CCC[C@H]1C(=O)N[C@@H](CCCNC(=N)N)C(=O)N[C@@H](CO)C(=O)N[C@@H](CC(N)=O)C(=O)N[C@H](C(=O)NCC(=O)N1CCC[C@H]1C(=O)N[C@@H](CCC(N)=O)C(=O)NCC(=O)N1C[C@H](O)C[C@H]1C(N)=O)C(C)C)C(C)C)[C@@H](C)O [compound 342] (H-GCRTGTCTVQWLAHQIYQFTDKDKDNVAPRSNVGPQG[Hyp]-NH2; disulfide 2-7)
< 5.30 | 11.15 | 5.000 | CC[C@H](C)[C@H](NC(=O)[C@H](C)NC(=O)[C@H](Cc1c[nH]cn1)NC(=O)[C@H](C)NC(=O)[C@H](CC(C)C)NC(=O)[C@H](CCCNC(=N)N)NC(=O)[C@H](CCC(N)=O)NC(=O)[C@@H](NC(=O)[C@@H](NC(=O)[C@@H]1CSSC[C@H](NC(=O)[C@@H](N)CCCCN)C(=O)N[C@@H](CC(N)=O)C(=O)N[C@@H]([C@@H](C)O)C(=O)N[C@@H](C)C(=O)N[C@@H]([C@@H](C)O)C(=O)N1)[C@@H](C)O)C(C)C)C(=O)N[C@@H](Cc1ccc(O)cc1)C(=O)N[C@@H](CCC(N)=O)C(=O)N[C@@H](Cc1ccccc1)C(=O)N[C@H](C(=O)N[C@@H](CC(=O)O)C(=O)N[C@@H](CCCCN)C(=O)N[C@@H](CC(=O)O)C(=O)N[C@@H](CCCCN)C(=O)N[C@@H](CC(=O)O)C(=O)N[C@@H](CC(N)=O)C(=O)N[C@H](C(=O)N[C@@H](C)C(=O)N1CCC[C@H]1C(=O)N1CCC[C@H]1C(=O)N[C@H](C(=O)N[C@@H](CC(N)=O)C(=O)N[C@H](C(=O)NCC(=O)N[C@@H](CO)C(=O)N[C@@H](CC(N)=O)C(=O)NCC(=O)N1C[C@H](O)C[C@H]1C(N)=O)C(C)C)[C@@H](C)O)C(C)C)[C@@H](C)O [compound 13] (H-KCNTATCTVQRLAHAIYQFTDKDKDNVAPPTNVGSNG[Hyp]-NH2; disulfide 2-7; N-terminus assumed)
< 5.30 | 10.89 | 10.150 | CC[C@H](C)[C@H](NC(=O)[C@H](CCC(N)=O)NC(=O)[C@H](Cc1c[nH]cn1)NC(=O)[C@H](C)NC(=O)[C@H](CC(C)C)NC(=O)[C@H](Cc1c[nH]c2ccccc12)NC(=O)[C@H](CCC(N)=O)NC(=O)[C@@H](NC(=O)[C@@H](NC(=O)[C@@H]1CSSC[C@H](NC(=O)[C@@H](N)CCCCN)C(=O)N[C@@H](CC(N)=O)C(=O)N[C@@H]([C@@H](C)O)C(=O)N[C@@H](C)C(=O)N[C@@H]([C@@H](C)O)C(=O)N1)[C@@H](C)O)C(C)C)C(=O)N[C@@H](Cc1ccc(O)cc1)C(=O)N[C@@H](CCC(N)=O)C(=O)N[C@@H](Cc1ccccc1)C(=O)N[C@H](C(=O)N[C@@H](CC(=O)O)C(=O)N[C@@H](CCCCN)C(=O)N[C@@H](CC(=O)O)C(=O)N[C@@H](CCCCN)C(=O)N[C@@H](CC(=O)O)C(=O)N[C@@H](CC(N)=O)C(=O)N[C@H](C(=O)N[C@@H](C)C(=O)N1CCC[C@H]1C(=O)N[C@@H](CCCNC(=N)N)C(=O)N[C@H](C(=O)N[C@@H](CCC(=O)O)C(=O)N[C@H](C(=O)NCC(=O)N[C@@H](CO)C(=O)N[C@@H](CC(N)=O)C(=O)NCC(=O)N[C@@H](Cc1ccc(O)cc1)C(N)=O)C(C)C)[C@@H](C)O)C(C)C)[C@@H](C)O [compound 334] (H-KCNTATCTVQWLAHQIYQFTDKDKDNVAPRTEVGSNGY-NH2; disulfide 2-7)
< 5.30 | 9.82 | 1.900 | CC[C@H](C)[C@H](NC(=O)[C@H](CCC(N)=O)NC(=O)[C@H](Cc1c[nH]cn1)NC(=O)[C@H](C)NC(=O)[C@H](CC(C)C)NC(=O)[C@H](CCCNC(=N)N)NC(=O)[C@H](CCC(N)=O)NC(=O)[C@@H](NC(=O)[C@@H](NC(=O)[C@@H]1CSSC[C@H](NC(=O)CN)C(=O)N[C@@H](CCCNC(=N)N)C(=O)N[C@@H](Cc2ccccc2)C(=O)NCC(=O)N[C@@H]([C@@H](C)O)C(=O)N1)[C@@H](C)O)C(C)C)C(=O)N[C@@H](Cc1ccc(O)cc1)C(=O)N[C@@H](CCC(N)=O)C(=O)N[C@@H](Cc1ccccc1)C(=O)N[C@H](C(=O)N[C@@H](CC(=O)O)C(=O)N[C@@H](CCCCN)C(=O)N[C@@H](Cc1ccccc1)C(=O)N[C@@H](CCCCN)C(=O)N[C@@H](CC(=O)O)C(=O)N[C@@H](CC(N)=O)C(=O)N[C@H](C(=O)N[C@@H](C)C(=O)N1CCC[C@H]1C(=O)N[C@@H](CCCNC(=N)N)C(=O)N[C@@H](CO)C(=O)N[C@@H](CCCCN)C(=O)N[C@H](C(=O)N[C@@H](CO)C(=O)N1CCC[C@H]1C(=O)N[C@@H](CCC(N)=O)C(=O)N[C@H](C(=O)N1C[C@H](O)C[C@H]1C(N)=O)[C@@H](C)O)[C@@H](C)CC)C(C)C)[C@@H](C)O [compound 212] (H-GCRFGTCTVQRLAHQIYQFTDKFKDNVAPRSKISPQT[Hyp]-NH2; disulfide 2-7; N-terminus assumed)
< 5.30 | 10.92 | 2.700 | CC[C@H](C)[C@H](NC(=O)[C@H](CCC(N)=O)NC(=O)[C@H](Cc1c[nH]cn1)NC(=O)[C@H](C)NC(=O)[C@H](CC(C)C)NC(=O)[C@H](CCCNC(=N)N)NC(=O)[C@H](CCC(N)=O)NC(=O)[C@@H](NC(=O)[C@@H](NC(=O)[C@@H]1CSSC[C@H](NC(=O)[C@@H](N)CCCCN)C(=O)N[C@@H](CC(N)=O)C(=O)N[C@@H]([C@@H](C)O)C(=O)N[C@@H](C)C(=O)N[C@@H]([C@@H](C)O)C(=O)N1)[C@@H](C)O)C(C)C)C(=O)N[C@@H](Cc1ccc(O)cc1)C(=O)N[C@@H](CCC(N)=O)C(=O)N[C@@H](Cc1ccccc1)C(=O)N[C@H](C(=O)N[C@@H](CC(=O)O)C(=O)N[C@@H](C)C(=O)N[C@@H](CC(=O)O)C(=O)N[C@@H](CCCCN)C(=O)N[C@@H](CC(=O)O)C(=O)N[C@@H](CC(N)=O)C(=O)N[C@H](C(=O)N[C@@H](C)C(=O)N1CCC[C@H]1C(=O)N1CCC[C@H]1C(=O)N[C@H](C(=O)N[C@@H](CC(N)=O)C(=O)N[C@H](C(=O)NCC(=O)N[C@@H](CO)C(=O)N[C@@H](CC(N)=O)C(=O)NCC(=O)N1C[C@H](O)C[C@H]1C(N)=O)C(C)C)[C@@H](C)O)C(C)C)[C@@H](C)O [compound 64] (H-KCNTATCTVQRLAHQIYQFTDADKDNVAPPTNVGSNG[Hyp]-NH2; disulfide 2-7)
< 5.30 | 10.74 | 3.900 | CC[C@H](C)[C@H](NC(=O)[C@H](CCC(N)=O)NC(=O)[C@H](Cc1c[nH]cn1)NC(=O)[C@H](C)NC(=O)[C@H](CC(C)C)NC(=O)[C@H](Cc1c[nH]c2ccccc12)NC(=O)[C@H](CCC(N)=O)NC(=O)[C@@H](NC(=O)[C@@H](NC(=O)[C@@H]1CSSC[C@H](NC(=O)[C@@H](N)CCCCN)C(=O)N[C@@H](CC(N)=O)C(=O)N[C@@H]([C@@H](C)O)C(=O)N[C@@H](C)C(=O)N[C@@H]([C@@H](C)O)C(=O)N1)[C@@H](C)O)C(C)C)C(=O)N[C@@H](Cc1ccc(O)cc1)C(=O)N[C@@H](CCC(N)=O)C(=O)N[C@@H](Cc1ccccc1)C(=O)N[C@H](C(=O)N[C@@H](CC(=O)O)C(=O)N[C@@H](CCCCN)C(=O)N[C@@H](CC(=O)O)C(=O)N[C@@H](CCCCN)C(=O)N[C@@H](CC(=O)O)C(=O)N[C@@H](CC(N)=O)C(=O)N[C@H](C(=O)N[C@@H](C)C(=O)N1CCC[C@H]1C(=O)N[C@H](C(=O)N[C@@H](CC(N)=O)C(=O)N[C@H](C(=O)NCC(=O)N[C@@H](CO)C(=O)N[C@@H](CC(N)=O)C(=O)NCC(=O)N1C[C@H](O)C[C@H]1C(N)=O)C(C)C)[C@@H](C)O)C(C)C)[C@@H](C)O [compound 319] (H-KCNTATCTVQWLAHQIYQFTDKDKDNVAPTNVGSNG[Hyp]-NH2; disulfide 2-7; N-terminus assumed)
